PMC5983617, “Hypouricemic Effect of 2,5-Dihydroxyacetophenone, a Computational Screened Bioactive Compound from Ganoderma applanatum, on Hyperuricemic Mice” (International Journal of Molecular Sciences, 2018)

Molecular target: T1, XOD (xanthine oxidase) (Bos taurus, UniProt P80457)
T1 construct: gene XDH; oxidase form
Assay: xanthine oxidation, absorbance at […] nm, microplate reader
Type: biochemical

T1 sequence (P80457 2-1332): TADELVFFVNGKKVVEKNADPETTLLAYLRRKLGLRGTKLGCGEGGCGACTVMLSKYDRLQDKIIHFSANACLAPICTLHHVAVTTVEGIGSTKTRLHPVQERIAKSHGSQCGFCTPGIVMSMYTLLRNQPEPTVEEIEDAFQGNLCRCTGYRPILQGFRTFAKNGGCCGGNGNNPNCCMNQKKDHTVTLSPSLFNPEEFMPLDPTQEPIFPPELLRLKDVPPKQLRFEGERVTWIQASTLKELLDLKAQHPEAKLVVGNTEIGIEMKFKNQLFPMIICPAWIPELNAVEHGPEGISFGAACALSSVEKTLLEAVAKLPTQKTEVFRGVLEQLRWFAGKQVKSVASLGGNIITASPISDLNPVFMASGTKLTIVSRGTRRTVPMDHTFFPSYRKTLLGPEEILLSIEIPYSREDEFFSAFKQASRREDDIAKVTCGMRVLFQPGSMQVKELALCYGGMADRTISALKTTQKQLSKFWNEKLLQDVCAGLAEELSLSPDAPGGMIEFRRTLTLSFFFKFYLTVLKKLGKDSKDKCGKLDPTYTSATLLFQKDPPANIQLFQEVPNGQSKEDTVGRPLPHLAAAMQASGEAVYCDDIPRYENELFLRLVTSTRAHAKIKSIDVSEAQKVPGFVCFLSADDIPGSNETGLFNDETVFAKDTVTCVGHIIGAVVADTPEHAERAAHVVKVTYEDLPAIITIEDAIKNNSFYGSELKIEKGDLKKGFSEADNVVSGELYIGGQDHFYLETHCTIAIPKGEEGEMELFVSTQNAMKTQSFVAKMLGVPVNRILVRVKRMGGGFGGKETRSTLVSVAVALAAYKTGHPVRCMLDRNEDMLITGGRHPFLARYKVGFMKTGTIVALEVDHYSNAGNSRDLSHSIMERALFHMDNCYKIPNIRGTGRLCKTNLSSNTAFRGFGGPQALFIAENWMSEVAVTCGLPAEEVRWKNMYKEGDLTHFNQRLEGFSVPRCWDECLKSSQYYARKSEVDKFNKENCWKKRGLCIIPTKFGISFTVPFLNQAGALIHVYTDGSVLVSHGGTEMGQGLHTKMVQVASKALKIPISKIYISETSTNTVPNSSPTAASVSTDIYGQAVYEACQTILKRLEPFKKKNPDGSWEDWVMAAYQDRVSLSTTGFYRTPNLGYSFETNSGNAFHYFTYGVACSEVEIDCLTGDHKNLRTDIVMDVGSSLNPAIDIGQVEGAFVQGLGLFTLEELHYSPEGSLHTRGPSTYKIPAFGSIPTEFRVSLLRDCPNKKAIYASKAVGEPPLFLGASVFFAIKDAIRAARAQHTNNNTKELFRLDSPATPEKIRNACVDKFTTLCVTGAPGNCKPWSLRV

IC50: 8.12 ± 0.27 µM
SMILES: CC(=O)c1cc(O)ccc1O [DHAP]
